Measurements reported in US20240317740A1, “NOVEL COMPOUNDS AND THEIR USE” (Debiopharm International S.A., priority 2021, published 2024).
Converted amounts (≈) assume the structure as drawn.

What was measured:
A. baumannii FabI = A. baumannii FabI (Acinetobacter baumannii, UniProt D0CAD5); test: Inhibition of FabI enzyme (NADH consumption rate); format: biochemical; conditions: recombinant FabI, 30° C., pH 7.25
Description: Inhibition of Fabl enzyme from Acinetobacter baumannii and Escherichia coli was tested by measuring the rate of NADH consumption (Aabsorbance at 340 nm/min) at 30° C. in 96-well plate format using an automated plate reader in the presence or absence of the test compounds. The assay mixture contained 100 mM Tris-HCl, pH 7.25 (A. baumannii) or 7.5 (E. coli), 100 mM ammonium acetate, 0.02% (A. baumannii) or 0.05% (E. coli) Pluronic F-68, 25 μM crotonyl ACP, 50 μM NADH, […] recombinant Fabl protein, and 7.5% DMSO. Test compounds were added at concentrations ranging from 0.17 to 10,000 nM in a final well volume of 100 μl. This dose-response inhibitory assay was performed using a 10-point, serial dilution series for each test compound. IC50 values for each test compound were assigned from logistical sigmoid curve-fitting of the inhibition dose response curves.

[1] = test system: A. baumannii ATCC BAA1605; test: Broth microdilution MIC assay; format: cell-based; conditions: Acinetobacter baumannii, ATCCBAA1605; CA-MHB, 1% DMSO, 35° C., 20 hours
Description: (§1) The antibacterial activity of Fabl inhibitors against select Gram-negative and Gram-positive bacterial species including susceptible and multi-drug resistant A. baumannii, E. coli, K. pneumoniae and S. aureus was tested using the broth microdilution Minimal Inhibitory Concentration (MIC) assay following CLSI guidelines for insoluble compounds. Test articles were serially diluted 2-fold in 100% dimethyl sulfoxide (DMSO) and then diluted 100-fold into cation adjusted Mueller-Hinton broth (CA-MHB) to achieve a 10-point test concentration range in 1% DMSO. Final compound concentrations were 0.016-8 μg/ml for S. aureus or 0.06-32 μg/ml for the Gram-negative species. MIC test plates were then prepared by transferring 100 μl of the final assay medium (test article in CA-MHB, 1% DMSO) into the appropriate wells of a sterile, low binding 96-well polystyrene plate. Direct colony suspension inoculums of the test strains were freshly prepared per CLSI guidelines, and the appropriate test wells were inoculated to achieve a final bacterial cell density of 5×10^5 CFU/ml. Growth control (no test article) and negative control (no bacterial inoculum) wells were also included. Exposure to light was minimized during all stages of assay preparation. MIC test plates were incubated at 35° C. for 20 hours. Bacterial growth was then determined by measuring the optical density at 600 nm (OD600) using a SpectraMax Plus plate-reader spectrophotometer.

E. coli AG100 = test: Broth microdilution MIC assay; format: cell-based; conditions: Escherichia coli, CA-MHB, 1% DMSO, 35° C., 20 hours
Description: as §1

S. aureus ATCC 29213 = test: Broth microdilution MIC assay; format: cell-based; conditions: Staphylococcus aureus, ATCC29213; CA-MHB, 1% DMSO, 35° C., 20 hours
Description: as §1

K. pneumoniae A6030827 = test: Broth microdilution MIC assay; format: cell-based; conditions: Klebsiella pneumoniae, CA-MHB, 1% DMSO, 35° C., 20 hours
Description: as §1

A. baumannii FabI, sequence (D0CAD5 1-288): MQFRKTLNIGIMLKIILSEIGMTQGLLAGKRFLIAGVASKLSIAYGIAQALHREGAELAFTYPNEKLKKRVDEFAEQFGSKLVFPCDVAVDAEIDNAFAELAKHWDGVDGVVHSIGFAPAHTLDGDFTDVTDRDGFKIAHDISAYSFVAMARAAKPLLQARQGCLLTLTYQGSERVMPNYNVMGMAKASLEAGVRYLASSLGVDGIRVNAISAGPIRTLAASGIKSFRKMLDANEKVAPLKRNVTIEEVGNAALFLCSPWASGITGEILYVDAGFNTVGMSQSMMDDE

IC50 (A. baumannii FabI) | MIC [1] | MIC (E. coli AG100) | MIC (S. aureus ATCC 29213) | MIC (K. pneumoniae A6030827) | SMILES
< 10 nM | ≤ 4 µg/mL | 8 µg/mL (≈ 17.4 µM) | ≤ 4 µg/mL |  | Cc1oc2ccccc2c1CN(C)C(=O)/C=C/c1cnc2c(c1)CCC(N1CCCC1)C(=O)N2 (single isomer, unassigned) [Compound 25, (S*,E)-N-methyl-N-((2-methylbenzofuran-3-yl)methyl)-3-(8-oxo-7-(pyrrolidin-1-yl)-6,7,8,9-tetrahydro-5H-pyrido[2,3-b]azepin-3-yl)acrylamide]
< 10 nM |  |  |  |  | Cc1oc2ccccc2c1CN(C)C(=O)/C=C/c1cnc2c(c1)CCC(N1CC[C@@H](O)C1)C(=O)N2 (single isomer, unassigned) [Compound 28, (E)-3-((R*)-7-((R)-3-hydroxypyrrolidin-1-yl)-8-oxo-6,7,8,9-tetrahydro-5H-pyrido[2,3-b]azepin-3-yl)-N-methyl-N-((2-methylbenzofuran-3-yl)methyl)acrylamide]
< 10 nM | ≤ 4 µg/mL | ≤ 4 µg/mL | ≤ 4 µg/mL |  | Cc1oc2ccccc2c1CN(C)C(=O)/C=C/c1cnc2c(c1)CCC(C)(N)C(=O)N2 (single isomer, unassigned) [Compound 39, (S*,E)-3-(7-amino-7-methyl-8-oxo-6,7,8,9-tetrahydro-5H-pyrido[2,3-b]azepin-3-yl)-N-methyl-N-((2-methylbenzofuran-3-yl)methyl)acrylamide]
 | ≤ 4 µg/mL | 8 µg/mL (≈ 16.9 µM) | ≤ 4 µg/mL |  | Cc1oc2ccccc2c1CN(C)C(=O)/C=C/c1cnc2c(c1)CCC(N1CC[C@@H](O)C1)C(=O)N2 (stereo in doubt) [Compound 28, (E)-3-((R*)-7-((R)-3-hydroxypyrrolidin-1-yl)-8-oxo-6,7,8,9-tetrahydro-5H-pyrido[2,3-b]azepin-3-yl)-N-methyl-N-((2-methylbenzofuran-3-yl)methyl)acrylamide]
< 10 nM | 8 µg/mL (≈ 19.1 µM) | 8 µg/mL (≈ 19.1 µM) | ≤ 4 µg/mL | 8 µg/mL (≈ 19.1 µM) | CNC1CCc2cc(/C=C/C(=O)N(C)Cc3c(C)oc4ccccc34)cnc2NC1=O (centres unmarked) [Compound 11, (E)-N-methyl-3-(7-(methylamino)-8-oxo-6,7,8,9-tetrahydro-5H-pyrido[2,3-b]azepin-3-yl)-N-((2-methylbenzofuran-3-yl)methyl)acrylamide]
< 10 nM | ≤ 4 µg/mL | 16 µg/mL (≈ 37 µM) | ≤ 4 µg/mL | 8 µg/mL (≈ 18.5 µM) | Cc1oc2ccccc2c1CN(C)C(=O)/C=C/c1cnc2c(c1)CCC(N(C)C)C(=O)N2 (centres unmarked) [Compound 13, (E)-3-[7-(dimethylamino)-8-oxo-5,6,7,9-tetrahydropyrido[2,3-b]azepin-3-yl]-N-methyl-N-[(2-methylbenzofuran-3-yl)methyl]prop-2-enamide]
< 10 nM | ≤ 4 µg/mL | 16 µg/mL (≈ 34.9 µM) | ≤ 4 µg/mL | 16 µg/mL (≈ 34.9 µM) | Cc1oc2ccccc2c1CN(C)C(=O)/C=C/c1cnc2c(c1)CCC(N1CCCC1)C(=O)N2 (centres unmarked) [Compound 15, (E)-N-methyl-N-[(2-methylbenzofuran-3-yl)methyl]-3-(8-oxo-7-pyrrolidin-1-yl-5,6,7,9-tetrahydropyrido[2,3-b]azepin-3-yl)prop-2-enamide]
< 10 nM | ≤ 4 µg/mL | 8 µg/mL (≈ 19.1 µM) | ≤ 4 µg/mL | 8 µg/mL (≈ 19.1 µM) | Cc1oc2ccccc2c1CN(C)C(=O)/C=C/c1cnc2c(c1)N[C@H](C)[C@H](N)C(=O)N2 [Compound 23, (E)-3-((2R,3S)-3-amino-2-methyl-4-oxo-2,3,4,5-tetrahydro-1H-pyrido[2,3-b][1,4]diazepin-8-yl)-N-methyl-N-((2-methylbenzofuran-3-yl)methyl)acrylamide]
